From PubChem BioAssay (NCI)
“And” between values parts separate entries of the source, which are not always exact repeats. Equal entries are not always repeated.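 Grown in 96-well plates, cells were treated for 48 hours with each compound at five concentrations. Insufficient inhibition: endpoint recorded as highest concentration tested. Abbreviation: GI50, concentration required for 50% inhibition of growth. TGI marks complete inhibition of growth.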

Key:
Assay in all cases: NCI-60 cell line screen, 48 h
UACC-257 melanoma = system: UACC-257 melanoma
OVCAR-8 ovarian = system: OVCAR-8 ovarian
OVCAR-3 ovarian = system: OVCAR-3 ovarian
RPMI-8226 leukemia = system: RPMI-8226 leukemia
HL-60(TB) leukemia = system: HL-60(TB) leukemia
COLO 205 colon = system: COLO 205 colon
SF-539 CNS = system: SF-539 CNS
A498 renal = system: A498 renal
ACHN renal = system: ACHN renal
HS 578T breast = system: HS 578T breast

Row | Compound | TGI (UACC-257 melanoma) | TGI (OVCAR-8 ovarian) | TGI (OVCAR-3 ovarian) | TGI (RPMI-8226 leukemia) | TGI (HL-60(TB) leukemia) | TGI (COLO 205 colon) | TGI (SF-539 CNS) | TGI (A498 renal) | TGI (ACHN renal) | GI50 (OVCAR-8 ovarian) | GI50 (OVCAR-3 ovarian) | GI50 (RPMI-8226 leukemia) | GI50 (HL-60(TB) leukemia) | GI50 (SF-539 CNS) | GI50 (A498 renal) | TGI (HS 578T breast)
1 | CSCC[C@@H](NC(=O)[C@H](CC(C)C)NC(=O)C(Cc1cnc[nH]1)NC(=O)CNC(=O)[C@@H](NC(=O)[C@H](C)NC(=O)[C@H](Cc1c[nH]c2ccccc12)NC(=O)[C@H](CCC(N)=O)NC(=O)[C@@H](N)CC(N)=O)C(C)C)C(N)=O (stereo partly drawn) | > 100 µM | > 100 µM | > 100 µM | > 100 µM | > 100 µM | > 100 µM | > 100 µM | > 100 µM |  |  |  |  |  |  |  | 
2 | O=c1c(F)cn2c(=O)n1CCCCCCCn1c(=O)c(F)cn(c1=O)CCCCCCC2 | > 100 µM | > 100 µM | > 100 µM | > 100 µM | > 100 µM | > 100 µM | > 100 µM | > 100 µM | > 100 µM |  |  |  |  |  |  | 
3 | Cc1c2ccnc(C(N)=O)c2c(C)c2c1[nH]c1ccccc12 | 35.1 µM | 19.1 µM and > 100 µM | 34.8 µM and 32.1 µM | 34.5 µM and 16.4 µM | 38.3 µM and > 100 µM | 50 µM and > 100 µM | 23.9 µM and 13.9 µM | 26.7 µM and 12.4 µM | 13.8 µM | 4.87 µM | 5.94 µM | 3.58 µM | 4.36 µM | 3.75 µM | 3.09 µM | 
4 | Cc1c(N2CCOCC2)nc2ccc(Cl)cc2c1-c1ccccc1 | > 100 µM | > 100 µM | > 100 µM | > 100 µM | > 100 µM | > 100 µM | > 100 µM | > 100 µM | > 100 µM |  |  |  |  |  |  | 
5 | CC(C)C(Br)CCC1=CCC(Br)(Br)C1 (stereo not drawn) | 28.2 µM |  | 25.7 µM |  | > 100 µM | 29.6 µM | 33.7 µM | 32.8 µM | 30.6 µM |  |  |  |  |  |  | 47.4 µM
6 | COc1cc2ccc3c4cc(OC)c(OC)cc4c[n+](C)c3c2cc1O | > 100 µM | > 100 µM | > 100 µM | > 100 µM | > 100 µM | > 100 µM | > 100 µM | > 48.1 µM | > 76.6 µM |  |  |  |  |  |  | 
7 | CCc1c(O)cc(=O)oc1-c1ccc(OC)c(OC)c1 | > 100 µM | > 100 µM | > 100 µM |  |  | > 100 µM | > 100 µM | > 100 µM | > 100 µM |  |  |  |  |  |  | > 100 µM
8 | CN(C)CCn1c(=O)c2ccc(NCCCN(C)CCCNc3ccc4c(=O)n(CCN(C)C)c(=O)n5c6ccc(O)cc6c(=O)c3c45)c3c(=O)c4cc(O)ccc4n(c1=O)c23 | 1.23 µM | 0.347 µM |  |  | 0.701 µM | 0.187 µM | 1.84 µM | 0.367 µM | 0.726 µM |  |  |  |  |  |  | 
9 | COC(=O)[C@]1(C)CCC[C@@]2(C)C1CC[C@]13C=C(C(C)C)[C@H](CC21)CC3(Cl)C#N (stereo partly drawn) | > 100 µM | > 100 µM | > 100 µM |  |  | > 100 µM | > 100 µM | > 100 µM | > 100 µM |  |  |  |  |  |  | > 100 µM
10 | COC(=O)c1ccccc1C1CN=NC12Cc1c(ccc(C)c1C)C2=O (stereo not drawn) | > 100 µM | > 100 µM | > 100 µM |  | > 100 µM | > 100 µM |  | > 100 µM | > 100 µM |  |  |  |  |  |  | > 100 µM
11 | O=c1oc2ccccc2c(O)c1Cc1ccc(Cc2c(O)c3ccccc3oc2=O)cc1 | > 100 µM | > 100 µM | > 100 µM |  | > 100 µM | > 100 µM | > 100 µM | > 100 µM |  |  |  |  |  |  |  | > 100 µM
12 | C[n+]1cc2cc(O)c(O)cc2c2ccc3cc(O)c(O)cc3c21 | > 100 µM | 11.4 µM | 7.96 µM | > 100 µM |  | > 84.5 µM | 7.77 µM | 11.8 µM | > 100 µM |  |  |  |  |  |  | 
13 | CCOC(=O)c1csc(NC(=O)C(C)N2CCCC2)n1 (stereo not drawn) | > 100 µM | > 100 µM | > 100 µM | > 100 µM |  | > 100 µM | > 100 µM | > 100 µM | > 100 µM |  |  |  |  |  |  | 
14 | Cn1nc(-c2ccc(S(=O)(=O)/N=C(\NN)Nc3ccc(Cl)cc3)s2)cc1C(F)(F)F | 34 µM | 43 µM | 36.4 µM | 56 µM | 22.6 µM | 37.6 µM | 30 µM | 31 µM | 33.8 µM |  |  |  |  |  |  | 
15 | COC(=O)CC(=O)OSc1ccccc1 | 87.7 µM |  | 36.4 µM | > 100 µM |  | 38.2 µM | 25.5 µM | 65 µM | 56.5 µM |  |  |  |  |  |  | 
16 | CC(=O)NNc1nc(C)c(C(=O)NNC(=O)C(=O)Nc2ccc([N+](=O)[O-])cc2[N+](=O)[O-])s1 | > 100 µM | > 100 µM |  | > 100 µM | > 100 µM | > 100 µM | > 100 µM | > 100 µM | > 100 µM |  |  |  |  |  |  | 
17 | CO/N=C1\CC(NC(=O)C(F)(F)F)c2ccsc21 (stereo not drawn) | > 100 µM | > 100 µM | > 100 µM |  | > 100 µM | > 100 µM | > 100 µM | > 100 µM |  |  |  |  |  |  |  | > 100 µM
18 | N#Cc1c(-c2ccc([N+](=O)[O-])cc2)cc(-c2ccc(Nc3ccnc4cc(Cl)ccc34)cc2)[nH]c1=O |  | > 100 µM | > 100 µM | > 100 µM | > 100 µM | > 100 µM | > 100 µM | > 100 µM | > 100 µM |  |  |  |  |  |  | 
